Measurements reported in US11369565B2, “Amino-pyrimidine skeletal muscle modulators” (Cytokinetics, Inc., priority 2010, dated 2022).

Test system: rabbit skeletal myofibrils (approximately 90% fast fibers)
Assay: Activation of fast skeletal myofibrils (PUMA coupled-enzyme ATPase assay at pCa25)
Format: biochemical
Details: concentration at which the compound increased the enzymatic activity by 40%; calcium at pCa25; PM12 buffer pH 6.8
Outline: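 In pH 6.8 PM12 buffer (12 mM Pipes, 2 mM MgCl2, 1 mM DTT), ADP from myosin regenerated via pyruvate kinase/lactate dehydrogenase, with absorbance change at 340 nm from NADH oxidation as read-out. Calcium set at pCa25; Triton-washed rabbit skeletal myofibrils (about 90% fast fibres) used.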

| SMILES | Mean AC1.4 |
| --- | --- |
| COc1ccc(NC(=O)c2cnc(NCC3(c4ncccc4F)CCC3)nc2)cn1 [[2-({[(3-fluoro(2-pyridyl))cyclobutyl]methyl}amino)pyrimidin-5-yl]-N-(6-methoxy(3-pyridyl))carboxamide] | D (D=>20 uM) |
| CS(=O)(=O)NCCNC(=O)c1cnc(NCC2(c3ncccc3F)CCC2)nc1 [[2-({[(3-fluoro(2-pyridyl))cyclobutyl]methyl}amino)pyrimidin-5-yl]-N-[(methylsulfonyl)amino]ethyl} carboxamide] | D (D=>20 uM) |
| O=C(Nc1ccccc1)c1cnc(NCC2(c3ncccc3F)CCC2)nc1 [[2-({[(3-fluoro(2-pyridyl))cyclobutyl]methyl}amino)pyrimidin-5-yl]-N-benzamide] | C (C=10-20 uM) |
| O=C(Nc1ccon1)c1cnc(NCC2(c3ncccc3F)CCC2)nc1 [[2-({[(3-fluoro(2-pyridyl))cyclobutyl]methyl}amino)pyrimidin-5-yl]-N-isoxazol-3-ylcarboxamide] | B (B=1-10 uM) |
| CNC(=O)c1cnc(NCC2(c3ncccc3F)CCC2)nc1 [[2-({[(3-fluoro(2-pyridyl))cyclobutyl]methyl}amino)pyrimidin-5-yl]-N-methylcarboxamide] | D (D=>20 uM) |
| O=C(Nc1ccn[nH]1)c1cnc(NCC2(c3ncccc3F)CCC2)nc1 [[2-({[(3-fluoro(2-pyridyl))cyclobutyl]methyl}amino)pyrimidin-5-yl]-N-pyrazol-5-ylcarboxamide] | C (C=10-20 uM) |
| COc1ncc(-c2cnc(NC[C@]3(c4ncccc4F)C[C@H](F)C3)nc2)c(OC)n1 [[5-(2,4-dimethoxypyrimidin-5-yl)pyrimidin-2-yl]{[3-fluoro-1-(3-fluoro(2-pyridyl))cyclobutyl]methyl}amine] | D (D=>20 uM) |
| COc1cc(-c2cnc(NC[C@]3(c4ncccc4F)C[C@H](F)C3)nc2)nc(OC)n1 [[5-(2,6-dimethoxypyrimidin-4-yl)pyrimidin-2-yl]{[3-fluoro-1-(3-fluoro(2-pyridyl))cyclobutyl]methyl}amine] | D (D=>20 uM) |
| Cc1nc(N)ncc1-c1cnc(NC[C@]2(c3ncccc3F)C[C@H](F)C2)nc1 [[5-(2-amino-4-methylpyrimidin-5-yl)pyrimidin-2-yl]{[3-fluoro-1-(3-fluoro(2-pyridyl))cyclobutyl]methyl}amine] | C (C=10-20 uM) |
| Nc1ncc(F)c(-c2cnc(NC[C@]3(c4ncccc4F)C[C@H](F)C3)nc2)n1 [[5-(2-amino-5-fluoropyrimidin-4-yl)pyrimidin-2-yl]{[3-fluoro-1-(3-fluoro(2-pyridyl))cyclobutyl]methyl}amine] | B (B=1-10 uM) |
| Cc1cnc(N)nc1-c1cnc(NC[C@]2(c3ncccc3F)C[C@H](F)C2)nc1 [[5-(2-amino-5-methylpyrimidin-4-yl)pyrimidin-2-yl]{[3-fluoro-1-(3-fluoro(2-pyridyl))cyclobutyl]methyl}amine] | D (D=>20 uM) |
| Nc1nccc(-c2cnc(NC[C@]3(c4ncccc4F)C[C@H](F)C3)nc2)n1 [[5-(2-aminopyrimidin-4-yl)pyrimidin-2-yl]{[3-fluoro-1-(3-fluoro(2-pyridyl))cyclobutyl]methyl)amine] | C (C=10-20 uM) |
| Nc1ncc(-c2cnc(NC[C@]3(c4ncccc4F)C[C@H](F)C3)nc2)cn1 [[5-(2-aminopyrimidin-5-yl)]pyrimidin-2-yl]{[3-fluoro-1-(3-fluoro(2-pyridyl))cyclobutyl]methyl}amine] | B (B=1-10 uM) |
| CC(C)(Nc1ncc(-c2cnc(N)nc2)cn1)c1ncccc1F [[5-(2-aminopyrimidin-5-yl)pyrimidin-2-yl][1-(3-fluoro(2-pyridyl))-isopropyl]amine] | D (D=>20 uM) |
| CC(C)(Nc1ncc(-c2ccc3[nH]nc(N)c3c2)cn1)c1ncccc1F [[5-(3-amino(1H-indazol-5-yl))pyrimidin-2-yl][1-(3-fluoro(2-pyridyl))-isopropyl]amine] | A (A=<1 uM) |
| CC(C)(CNc1ncc(-c2ccc3[nH]nc(N)c3c2)cn1)c1ccc(F)cc1 [[5-(3-amino(1H-indazol-5-yl))pyrimidin-2-yl][2-(4-fluorophenyl)-2-methylpropyl]amine] | A (A=<1 uM) |
| CC(C)(C)Nc1ncc(-c2ccc3[nH]nc(N)c3c2)cn1 [[5-(3-amino(1H-indazol-5-yl))pyrimidin-2-yl]tert-butyl)amine] | B (B=1-10 uM) |
| Nc1cnc(-c2cnc(NC[C@]3(c4ncccc4F)C[C@H](F)C3)nc2)cn1 [[5-(5-aminopyrazin-2-yl)pyrimidin-2-yl]{[3-fluoro-1-(3-fluoro(2-pyridyl))cyclobutyl]methyl}amine] | B (B=1-10 uM) |
| Nc1cncc(-c2cnc(NC[C@]3(c4ncccc4F)C[C@H](F)C3)nc2)n1 [[5-(6-aminopyrazin-2-yl)pyrimidin-2-yl]{[3-fluoro-1-(3-fluoro(2-pyridyl))cyclobutyl]methyl}amine] | B (B=1-10 uM) |
| Nc1ccc(-c2cnc(NC[C@]3(c4ncccc4F)C[C@H](F)C3)nc2)nn1 [[5-(6-aminopyridazin-3-yl)pyrimidin-2-yl]{[3-fluoro-1-fluoro(2-pyridyl))cyclobutyl]methyl}amine] | B (B=1-10 uM) |
| Fc1cc2[nH]ncc2cc1-c1cnc(NC2(c3ncccc3F)CCC2)nc1 [[5-(6-fluoro(1H-indazol-5-yl))pyrimidin-2-yl][(3-fluoro(2-pyridyl))cyclobutyl]amine] | B (B=1-10 uM) |
| Fc1cccnc1C1(Nc2nccc(C(F)(F)F)n2)CCC1 [[(3-fluoro(2-pyridyl))cyclobutyl][4-(trifluoromethyl)pyrimidin-2-yl]amine] | D (D=>20 uM) |
| Fc1cccnc1C1(Nc2ncc3ccccc3n2)CCC1 [[(3-fluoro(2-pyridyl))cyclobutyl]quinazolin-2-ylamine] | D (D=>20 uM) |
| Fc1ccc(C2(Nc3nccc(C(F)(F)F)n3)CCC2)cc1 [[(4-fluorophenyl)cyclobutyl][4-(trifluoromethyl)pyrimidin-2-yl]amine] | C (C=10-20 uM) |
| Fc1ccc(C2(Nc3ncc4cn[nH]c4n3)CCC2)cc1 [[(4-fluorophenyl)cyclobutyl]pyrazolo[5,4-d]pyrimidin-6-ylamine] | D (D=>20 uM) |

More lines, now with the values ahead:

| Mean AC1.4 | SMILES |
| --- | --- |
| D (D=>20 uM) | CCOC(=O)c1cnn(-c2cnc(NCC3(c4ncccc4F)CCC3)nc2)c1 [ethyl 1-[2-({[(3-fluoro-2-pyridyl)cyclobutyl]methyl}amino)pyrimidin-5-yl] pyrazole-4-carboxylate] |
| D (D=>20 uM) | CCOC(=O)c1cc2cnc(NCC3(c4ncccc4F)CCC3)nc2s1 [ethyl 2-({[(3-fluoro-2-pyridyl)cyclobutyl]methyl}amino) thiopheno[2,3-d]pyrimidine-6-carboxylate] |
| D (D=>20 uM) | CCOC(=O)c1csc(-c2cnc(NCC3(c4ncccc4F)CCC3)nc2)n1 [ethyl 2-[2-({[(3-fluoro-2-pyridyl)cyclobutyl]methyl}amino)pyrimidin-5-yl]-1,3-thiazole-4-carboxylate] |
| D (D=>20 uM) | CCOC(=O)c1cc(-c2cnc(NC(C)(C)c3ncccc3Cl)nc2)no1 [ethyl 3-(2-{[1-(3-chloro(2-pyridyl))-isopropyl]amino}pyrimidin-5-yl)isoxazole-5-carboxylate] |
| D (D=>20 uM) | CCOC(=O)c1noc(-c2cnc(NC(C)(C)c3ncccc3Cl)nc2)n1 [ethyl 5-(2-{[1-(3-chloro(2-pyridyl))-isopropyl]amino}pyrimidin-5-yl)-1,2,4-oxadiazole-3-carboxylate] |
| D (D=>20 uM) | CCOC(=O)c1nnc(-c2cnc(NC(C)(C)c3ncccc3Cl)nc2)o1 [ethyl 5-(2-{[1-(3-chloro(2-pyridyl))-isopropyl]amino}pyrimidin-5-yl)-1,3,4-oxadiazole-2-carboxylate] |
| D (D=>20 uM) | COC(=O)c1ccn(-c2cnc(NC[C@]3(c4ncccc4F)C[C@H](F)C3)nc2)c1 [methyl 1-[2-({[3-fluoro-1-(3-fluoro(2-pyridyl))cyclobutyl]methyl}amino)pyrimidin-5-yl]pyrrole-3-carboxylate] |
| C (C=10-20 uM) | COC(=O)Cc1ccc(F)c(-c2cnc(NC(C)(C)c3ncccc3F)nc2)c1 [methyl 2-[4-fluoro-3-(2-{[1-(3-fluoro(2-pyridyl))-isopropyl]amino}pyrimidin-5-yl)phenyl]acetate] |
| D (D=>20 uM) | COC(=O)c1cnc(NCC(C)(C)c2ccc(F)cc2)nc1 [methyl 2-{[2-(4-fluorophenyl)-2-methylpropyl]amino}pyrimidine-5-carboxylate] |
| D (D=>20 uM) | COC(=O)CNC(=O)c1cnc(NCC2(c3ncccc3F)CCC2)nc1 [methyl 2-{[2-({[(3-fluoro-2-pyridyl)cyclobutyl]methyl}amino)pyrimidin-5-yl]carbonylamino} acetate] |
| A (A=<1 uM) | COC(=O)c1ccc(O)c(-c2cnc(NC[C@]3(c4ncccc4F)C[C@H](F)C3)nc2)c1 [methyl 3-[2-({[3-fluoro-1-(3-fluoro(2-pyridyl))cyclobutyl]methyl)amino)pyrimidin-5-yl]-4-hydroxybenzoate] |
| D (D=>20 uM) | COC(=O)c1nc(-c2cnc(NC(C)(C)c3ncccc3Cl)nc2)cn1C [methyl 4-(2-{[1-(3-chloro(2-pyridyl))-isopropyl}amino}pyrimidin-5-yl)-1-methylimidazole-2-carboxylate] |
| D (D=>20 uM) | COC(=O)c1cc(-c2cnc(NC(C)(C)c3ncccc3Cl)nc2)ncn1 [methyl 6-(2-{[1-(3-chloro(2-pyridyl))-isopropyl]amino}pyrimidin-5-yl)pyrimidine-4-carboxylate] |
| B (B=1-10 uM) | CNC(=O)c1ccn(-c2cnc(NC[C@]3(c4ncccc4F)C[C@H](F)C3)nc2)c1 [{1-[2-({[3-fluoro-1-(3-fluoro(2-pyridyl))cyclobutyl]methyl}amino)pyrimidin-5-yl]pyrro1-3-yl}-N-methylcarboxamide] |
| C (C=10-20 uM) | CC(C)(Nc1nccc(-c2nccs2)n1)c1cccc(OC(F)F)n1 [{1-[6-(difluoromethoxyl)(2-pyridyl)]-isopropyl)(4-(1,3-thiazol-2-yl)]pyrimidin-2-yl)amine] |
